The target in test [1] is human SOS1 (nucleotide exchange of K-Ras^G12C) (Homo sapiens, UniProt Q07889). Description: Biochemical assay 2: K-Ras^G12C activation assay by hSOS1 at high GTP concentration (HTRF). As to conditions: high GTP; for IC50: read-out: Assay 2 (KRAS-Activation by SOS high GTP) activity expressed as IC50. A general note: In TR-FRET formats the signal depends on donor and acceptor labels being close together.

The target of test [2] is K-Ras^G12C : hSOS1 interaction (Homo sapiens, UniProt Q07889). Put plainly: Biochemical assay 1: K-Ras^G12C interaction assay with hSOS1 (HTRF). Format: binding. Particulars: read-out: Assay 1 (KRAS-SOS Interaction) activity expressed as IC50.

In general, IC50 refers to the concentration that gives 50% inhibition. `COc1cc2nc(C)nc(N[C@H](C)c3cccc(-c4cn[nH]c4)c3)c2cc1OCc1ccccc1` [Example 344, 6-(benzyloxy)-7-methoxy-2-methyl-N-{(1R)-1-[3-(1H-pyrazol-4-yl)phenyl]ethyl}-quinazolin-4-amine]: the IC50 in test [1] amounted to 1190 nM; in test [2] it was 931 nM.
Consider `CC[C@@H](O)c1ccccc1-c1ccc(C(C)Nc2nc(C)nc3cc(OC)c(OC)cc23)s1` (stereo partly drawn) [Example 349, (1R)-1-[2-(5-{1-[(6,7-dimethoxy-2-methylquinazolin-4-yl)amino]ethyl}thiophen-2-yl)phenyl]propan-1-ol], for which the IC50 in test [1] is 649 nM; in test [2], 231 nM.
The corresponding values for `COc1cc2nc(C)nc(NC(C)c3ccc(-c4ccccc4[C@H](C)N)s3)c2cc1OC` (stereo in doubt) [Example 360, N-[1-(5-{2-[1-aminoethyl]phenyl}thiophen-2-yl)ethyl]-6,7-dimethoxy-2-methylquinazolin-4-amine] are 141 nM and 195 nM.
In the case of `COc1cc2nc(C)nc(NC(C)c3ccc4c(c3)CCO4)c2cc1OC` (centres unmarked) [Example 24, N-[1-(2,3-dihydro-1-benzofuran-5-yl)ethyl]-6,7-dimethoxy-2-methylquinazolin-4-amine], the IC50 came out at 1220 nM in test [1] and 701 nM in test [2].
In the same order, the values of `COc1cc2nc(C)nc(NC(C)c3ccc(-c4ccccc4[C@@H](C)N)s3)c2cc1OC` (stereo in doubt) [Example 359, N-[1-(5-{2-[1-aminoethyl]phenyl}thiophen-2-yl)ethyl]-6,7-dimethoxy-2-methylquinazolin-4-amine] are 200 nM and 234 nM.
Usually inhibition stands for the share of the control response that was lost under treatment. Take `COc1cc2nc(C)nc(NC(C)c3c(C)nc4ccccn34)c2cc1OC` (centres unmarked) [Example 26, 6,7-dimethoxy-2-methyl-N-[1-(2-methylimidazo[1,2-a]pyridin-3-yl)ethyl]quinazolin-4-amine]: in test [1] (read-out: Assay 2 (KRAS-Activation by SOS high GTP) activity expressed as % inhibition at 20 μM, at 20 μM), the inhibition at 20 µM came out at 52%. For the same molecule, the IC50 in test [2] is 9550 nM.
For `COc1cc2nc(C)nc(NC(C)c3ccc(-c4ccccc4CNC4CCCC4)s3)c2cc1OC` (centres unmarked) [Example 364, N-[1-(5-{2-[(cyclopentylamino)methyl]phenyl}thiophen-2-yl)ethyl]-6,7-dimethoxy-2-methylquinazolin-4-amine], the IC50 in test [1] came out at 158 nM; in test [2] it was 129 nM.
In the same order, the values of `COc1cc2nc(C)nc(NC(C)c3ccc4c(c3)NC(=O)CO4)c2cc1OC` (centres unmarked) [Example 34, 6-{1-[(6,7-dimethoxy-2-methylquinazolin-4-yl)amino]ethyl}-2H-1,4-benzoxazin-3(4H)-one] are 3710 nM and 4230 nM.
In the same order, the values of `COCCOc1cc2c(N[C@H](C)c3cccc(-c4cn[nH]c4)c3)nc(C)nc2cc1OC` [Example 348, 7-methoxy-6-(2-methoxyethoxy)-2-methyl-N-{(1R)-1-[3-(1H-pyrazol-4-yl)phenyl]-ethyl}quinazolin-4-amine] are 816 nM and 693 nM.
Regarding `Cc1nc(N[C@H](C)c2cccc(Cl)c2)c2cc(Br)ccc2n1` [Example 363, 6-bromo-N-[(1R)-1-(3-chlorophenyl)ethyl]-2-methylquinazolin-4-amine], the figures for the IC50 in test [1] and in test [2] were 11300 nM and 12400 nM, respectively.
In the same order, the values of `CCCCOc1cc2c(N[C@H](C)c3cccc(-c4cn[nH]c4)c3)nc(C)nc2cc1OC` [Example 350, 6-butoxy-7-methoxy-2-methyl-N-{(1R)-1-[3-(1H-pyrazol-4-yl)phenyl]ethyl}quinazolin-4-amine] are 736 nM and 688 nM.
For `COc1cc2nc(C)nc(NC(C)c3ccc4c(c3)OCO4)c2cc1OC` (centres unmarked) [Example 23, N-[1-(1,3-benzodioxol-5-yl)ethyl]-6,7-dimethoxy-2-methylquinazolin-4-amine], the IC50 is 1850 nM in test [1] and 2720 nM in test [2].
In the same order, the values of `COc1cc2nc(C)nc(NC(C)c3ccc(-c4ccccc4CNCc4ccccc4)s3)c2cc1OC` (centres unmarked) [Example 365, N-[1-(5-{2-[(benzylamino)methyl]phenyl}thiophen-2-yl)ethyl]-6,7-dimethoxy-2-methylquinazolin-4-amine] are 299 nM and 469 nM.

Values taken from patent US20240083857A1, “2-Methyl-Quinazolines” (Bayer Pharma Aktiengesellschaft, priority 2017, published 2024).
